Assay results from US9260504B2, “N- and C-terminal substituted antagonistic analogs of GH-RH” (University of Miami, priority 2008, dated 2016).

Experiments:
Assay type in all cases: in vivo
[1] = test system: H460 human non-small cell lung cancer cell line; experiment: H460 human non-small cell lung cancer xenografts in nude mice (Example XV); conditions: 5 μg/day s.c.
From the text: The aim of this study was to find out the tumor inhibitor effect of the latest GHRH antagonists (Peptide 11423, Peptide 11602, Peptide 11604, Peptide 11606) on H460 human non-small cell lung cancer cell line. Female nude mice were xenografted subcutaneously with approximately 3 mm^3 pieces of H460 human non-small cell lung cancer malignant tumor tissue. When tumors reached the mean volume of approximately 90 mm^3, the animals was randomly assigned into different groups. Tumor volumes and body weight were measured once a week. At the end of the experiment mice were anesthetized and sacrificed. Tumors were carefully excised, weighed and were stored at −80° C. until further investigation. Organs and tumor samples were preserved in 10% formaldehyde.

[2] = test system: PC-3 human hormone-independent prostate cancer; experiment: PC3 androgen-independent prostate cancer xenografts in nude mice (Example XIV)
Method: Male nude mice were implanted s.c. with 3 mm^3 pieces of PC-3 human hormone-independent prostate cancer tissue on both flanks. When tumors reached a volume of approximately 50 mm^3, the mice were divided into 8 experimental groups with 8 to 10 animals in each group and received single daily injections for 28 days as follows: 1. Control (vehicle solution); 2. P-11513 2 μg/day; 3. P-11602 2 μg/day; 4. P-11602 1 μg/day; 5. P-11604 2 μg/day; 6. P-11606 2 μg/day; 7. P-11610 2 μg/day; 8. P-11610 1 μg/day.
Tumor volumes were measured once a week. The experiment was ended on day 28 by sacrificing the mice under Isoflurane anesthesia. Resulting tumors were cleaned, weighed, and snap-frozen until further analyses. Statistical analyses of the measurement results were done by two-tailed t-test, p<0.05 being considered significant.

[3] = test system: HT human diffuse mixed B cell lymphoma cell line; experiment: HT human diffuse mixed B cell lymphoma xenografts in nude mice; conditions: 5 μg/day s.c.
Method: The aim of this study was to find out the tumor inhibitor effect of the latest GHRH antagonists (Peptide 11602, Peptide 11604, Peptide 11606, and Peptide 11610) at the dose of 5 μg/day on HT human diffuse mixed B cell lymphoma cell line. Female nude mice were xenografted subcutaneously with approximately 3 mm^3 pieces of HT malignant tumor tissue. When tumors reached the mean volume of approximately 120 mm^3, the animals were randomly assigned into different groups. Tumor volumes and body weight were measured once a week. At the end of the experiment mice were anesthetized and sacrificed. Tumors were carefully excised, weighed and were stored at −80° C. until further investigation. Organs and tumor samples were preserved in 10% formaldehyde.

[4] = test system: Human ovarian cancer SKOV3 cells; experiment: SKOV3 ovarian cancer xenografts in nude mice; conditions: 5 μg/day s.c.
From the text: Human ovarian cancer SKOV3 cells growing exponentially were implanted info five female nude mice by subcutaneous (s.c.) injection of 10^7 cells in both flanks. Tumors That resulted after approximately 4 weeks in donor animals were then aseptically dissected and mechanically minced. Three mm^3 pieces of tumor tissue were transplanted subcutaneously into experimental animals with a trocar needle. When tumors reached an appropriate size (approximately 50 mm^3), mice were randomly divided into […]. The first was the control group, the second group was treated with daily s.c. injections of 5 μg P-11313, the third group was treated with daily s.c. injections of 5 μg P-11604, the fourth group was treated with daily s.c. injections of 5 μg P-11610. Tumor volume (length×width×height×0.5236) was measured every week and mean tumor volumes of each group were compared by Student's t-test. The study lasted 49 days. One week after end of treatment, mice were killed under anesthesia, tumors were snap frozen and stored at −70° C.

[PhAc^0-Tyr^1, D-Arg^2, Cpa^6, Dip^8, Har^9, Tyr(Me)^10, His^11, Orn^12, Abu^15, His^20, Orn^21, Nle^27, D-Arg^28, Har^29-AE2A^30]hGH-RH(1-29)NH2 [Peptide 11423]
TUMOR GROWTH (%) ([1]; day 1 (baseline)): 100.00%
TUMOR GROWTH (%) ([1]; day 7): 412.37%
Tumor inhibition (%) ([1]; day 7): 22.17%
TUMOR GROWTH (%) ([1]; day 14): 761.10%
Tumor inhibition (%) ([1]; day 14): 44.95%
TUMOR GROWTH (%) ([1]; day 21): 1130.90%
Tumor inhibition (%) ([1]; day 21): 54.20%
TUMOR GROWTH (%) ([1]; day 28): 2687.38%
Tumor inhibition (%) ([1]; day 28): 34.45%

[(PhAc-Ada)^0-Tyr^1, D-Arg^2, (Phe(F)5)^6, Ala^8, Har^9, Tyr(Me)^10, His^11, Orn^12, Abu^15, His^20, Orn^21, Nle^27, D-Arg^28, Har^29]hGH-RH(1-29)NH2 [Peptide 11602]
TUMOR GROWTH (%) ([2]; 1 μg/day, day 0 (baseline)): 100%
TUMOR GROWTH (%) ([2]; 1 μg/day, day 7): 249.81%
Tumor inhibition (%) ([2]; 1 μg/day, day 7): 24.59%
TUMOR GROWTH (%) ([2]; 1 μg/day, day 14): 295.25%
Tumor inhibition (%) ([2]; 1 μg/day, day 14): 50.04%
TUMOR GROWTH (%) ([2]; 1 μg/day, day 21): 467.74%
Tumor inhibition (%) ([2]; 1 μg/day, day 21): 60.70%
TUMOR GROWTH (%) ([2]; 1 μg/day, day 28): 740.06%
Tumor inhibition (%) ([2]; 1 μg/day, day 28): 60.15%
TUMOR GROWTH (%) ([2]; 2 μg/day, day 0 (baseline)): 100%
TUMOR GROWTH (%) ([2]; 2 μg/day, day 7): 197.77%
Tumor inhibition (%) ([2]; 2 μg/day, day 7): 40.30%
TUMOR GROWTH (%) ([2]; 2 μg/day, day 14): 270.61%
Tumor inhibition (%) ([2]; 2 μg/day, day 14): 54.21%
TUMOR GROWTH (%) ([2]; 2 μg/day, day 21): 449.82%
Tumor inhibition (%) ([2]; 2 μg/day, day 21): 62.20%
TUMOR GROWTH (%) ([2]; 2 μg/day, day 28): 641.31%
Tumor inhibition (%) ([2]; 2 μg/day, day 28): 65.47%
TUMOR GROWTH (%) ([1]; day 1 (baseline)): 100.00%
TUMOR GROWTH (%) ([1]; day 7): 247.89%
Tumor inhibition (%) ([1]; day 7): 53.21%
TUMOR GROWTH (%) ([1]; day 14): 504.42%
Tumor inhibition (%) ([1]; day 14): 63.52%
TUMOR GROWTH (%) ([1]; day 21): 864.16%
Tumor inhibition (%) ([1]; day 21): 65.00%
TUMOR GROWTH (%) ([1]; day 28): 2575.35%
Tumor inhibition (%) ([1]; day 28): 37.18%
TUMOR GROWTH (%) ([3]; day 1 (baseline)): 100%
Tumor inhibition (%) ([3]; day 1 (baseline)): 0%
Tumor volume (mm^3) ([3]; day 1 (baseline)): 194.81 mm^3
TUMOR GROWTH (%) ([3]; day 7): 192.86%
Tumor inhibition (%) ([3]; day 7): 36.94%
Tumor volume (mm^3) ([3]; day 7): 260.13 mm^3
TUMOR GROWTH (%) ([3]; day 14): 281.4%
Tumor inhibition (%) ([3]; day 14): 41.71%
Tumor volume (mm^3) ([3]; day 14): 311.76 mm^3
TUMOR GROWTH (%) ([3]; day 21): 462.45%
Tumor inhibition (%) ([3]; day 21): 40.82%
Tumor volume (mm^3) ([3]; day 21): 332.67 mm^3
TUMOR GROWTH (%) ([3]; day 28): 608.23%
Tumor inhibition (%) ([3]; day 28): 32.15%
Tumor volume (mm^3) ([3]; day 28): 509.24 mm^3

[(PhAc-Ada)^0-Tyr^1, D-Arg^2, (Phe(F)5)^6, Ala^8, Har^9, Tyr(Me)^10, His^11, Orn^12, Abu^15, His^20, Orn^21, Nle^27, D-Arg^28, Har^29, Agm^30]hGH-RH(1-29) [Peptide 11604]
TUMOR GROWTH (%) ([2]; 2 μg/day, day 0 (baseline)): 100%
TUMOR GROWTH (%) ([2]; 2 μg/day, day 7): 159.84%
Tumor inhibition (%) ([2]; 2 μg/day, day 7): 51.75%
TUMOR GROWTH (%) ([2]; 2 μg/day, day 14): 199.57%
Tumor inhibition (%) ([2]; 2 μg/day, day 14): 66.23%
TUMOR GROWTH (%) ([2]; 2 μg/day, day 21): 316.88%
Tumor inhibition (%) ([2]; 2 μg/day, day 21): 73.37%
TUMOR GROWTH (%) ([2]; 2 μg/day, day 28): 383.97%
Tumor inhibition (%) ([2]; 2 μg/day, day 28): 79.33%
TUMOR GROWTH (%) ([1]; day 1 (baseline)): 100.00%
TUMOR GROWTH (%) ([1]; day 7): 341.87%
Tumor inhibition (%) ([1]; day 7): 35.48%
TUMOR GROWTH (%) ([1]; day 14): 609.38%
Tumor inhibition (%) ([1]; day 14): 55.93%
TUMOR GROWTH (%) ([1]; day 21): 1006.40%
Tumor inhibition (%) ([1]; day 21): 59.24%
TUMOR GROWTH (%) ([1]; day 28): 1595.34%
Tumor inhibition (%) ([1]; day 28): 61.08%
TUMOR GROWTH (%) ([3]; day 1 (baseline)): 100%
Tumor inhibition (%) ([3]; day 1 (baseline)): 0%
Tumor volume (mm^3) ([3]; day 1 (baseline)): 125.04 mm^3
TUMOR GROWTH (%) ([3]; day 7): 129.89%
Tumor inhibition (%) ([3]; day 7): 57.53%
Tumor volume (mm^3) ([3]; day 7): 165.21 mm^3
TUMOR GROWTH (%) ([3]; day 14): 175.7%
Tumor inhibition (%) ([3]; day 14): 63.61%
Tumor volume (mm^3) ([3]; day 14): 231.44 mm^3
TUMOR GROWTH (%) ([3]; day 21): 271.36%
Tumor inhibition (%) ([3]; day 21): 65.27%
Tumor volume (mm^3) ([3]; day 21): 563.86 mm^3
TUMOR GROWTH (%) ([3]; day 28): 338.41%
Tumor inhibition (%) ([3]; day 28): 62.25%
Tumor volume (mm^3) ([3]; day 28): 818.2 mm^3
TU growth (%) ([4]; day 0 (baseline)): 100%
TU growth (%) ([4]; day 7): 144.55%
TU inhibition (%) ([4]; day 7): 32.57%
TU growth (%) ([4]; day 14): 174.5%
TU inhibition (%) ([4]; day 14): 37.73%
TU growth (%) ([4]; day 21): 179.5%
TU inhibition (%) ([4]; day 21): 66.97%
TU growth (%) ([4]; day 28): 167.5%
TU inhibition (%) ([4]; day 28): 80.12%
TU growth (%) ([4]; day 35): 182.88%
TU inhibition (%) ([4]; day 35): 79.52%
TU growth (%) ([4]; day 42): 397.95%
TU inhibition (%) ([4]; day 42): 67.80%
TU growth (%) ([4]; day 49): 309.96%
TU inhibition (%) ([4]; day 49): 75.63%

[(PhAc^0-Ada)-Tyr^1, D-Arg^2, (Phe(F)5)^6, (Me-Ala)^8, Har^9, Tyr(Me)^10, His^11, Orn^12, Abu^15, His^20, Orn^21, Nle^27, D-Arg^28, Har^29, Agm^30]hGH-RH(1-29) [Peptide 11606]
TUMOR GROWTH (%) ([2]; 2 μg/day, day 0 (baseline)): 100%
TUMOR GROWTH (%) ([2]; 2 μg/day, day 7): 145.65%
Tumor inhibition (%) ([2]; 2 μg/day, day 7): 56.03%
TUMOR GROWTH (%) ([2]; 2 μg/day, day 14): 307.66%
Tumor inhibition (%) ([2]; 2 μg/day, day 14): 47.94%
TUMOR GROWTH (%) ([2]; 2 μg/day, day 21): 521.69%
Tumor inhibition (%) ([2]; 2 μg/day, day 21): 56.16%
TUMOR GROWTH (%) ([2]; 2 μg/day, day 28): 709.50%
Tumor inhibition (%) ([2]; 2 μg/day, day 28): 61.80%
TUMOR GROWTH (%) ([1]; day 1 (baseline)): 100.00%
TUMOR GROWTH (%) ([1]; day 7): 221.26%
Tumor inhibition (%) ([1]; day 7): 58.24%
TUMOR GROWTH (%) ([1]; day 14): 494.68%
Tumor inhibition (%) ([1]; day 14): 64.22%
TUMOR GROWTH (%) ([1]; day 21): 933.19%
Tumor inhibition (%) ([1]; day 21): 62.20%
TUMOR GROWTH (%) ([1]; day 28): 1482.03%
Tumor inhibition (%) ([1]; day 28): 63.85%
TUMOR GROWTH (%) ([3]; day 1 (baseline)): 100%
Tumor inhibition (%) ([3]; day 1 (baseline)): 0%
Tumor volume (mm^3) ([3]; day 1 (baseline)): 128.49 mm^3
TUMOR GROWTH (%) ([3]; day 7): 209.74%
Tumor inhibition (%) ([3]; day 7): 31.38%
Tumor volume (mm^3) ([3]; day 7): 223.02 mm^3
TUMOR GROWTH (%) ([3]; day 14): 352.2%
Tumor inhibition (%) ([3]; day 14): 27.05%
Tumor volume (mm^3) ([3]; day 14): 341.77 mm^3
TUMOR GROWTH (%) ([3]; day 21): 453.71%
Tumor inhibition (%) ([3]; day 21): 41.94%
Tumor volume (mm^3) ([3]; day 21): 510.24 mm^3
TUMOR GROWTH (%) ([3]; day 28): 660.24%
Tumor inhibition (%) ([3]; day 28): 26.35%
Tumor volume (mm^3) ([3]; day 28): 716.13 mm^3
